Source: paper PMC10518421, “Zebrafish as model system for the biological characterization of CK1 inhibitors” (Frontiers in Pharmacology, 2023)
“Also recorded” adds a separate entry of the source. Read-outs that look alike come from different tables or passages of the source.

How the values were obtained:
CK1δ [1] = settings: prior to standardization, cited from earlier work
zebrafish embryos = settings: for phenotype of treated zebrafish embryos: 24 to 72 hpf (48 h); for dose dependence of phenotype: 5, 10, 20 and 40 µM
Protocol: The TüAB wildtype strain was used for all experiments. […] Zebrafish embryos were dechorionated at 24 h post fertilization (hpf) and treated with the respective concentration of inhibitor, dissolved in DMSO (Sigma-Aldrich, Stadt, Land) and diluted in E3 medium (5 mM NaCl, 0.17 mM KCl, 0.33 mM CaCl2, 0.33 mM MgSO4, 0.6 µM Methylene Blue dissolved in water). DMSO served as solvent control. Embryos were treated from 24 hpf until 72 hpf, the compound solution was renewed daily. Pictures and movies were recorded at 48 and 72 hpf. […] Pictures were taken on an Olympus stereo microscope SZX16 and movies were recorded on an inverse Leica stereo microscope DM IL LED Fluo equipped with a FLEXACAM C1.
Embryos were dechorionated at 24 hpf and treated with 20 µM of the respective inhibitor (Figure 6A).

GST-CK1ε = target: T1, GST-CK1ε (Homo sapiens, UniProt P49674); test: in vitro kinase assay, α-casein phosphorylation with [γ-32P]-ATP, standard conditions; type: biochemical; settings: 20 µM inhibitor, normalized to DMSO control
T1 construct: made in house; host or cells: E. coli Rosetta 2 (DE3)
Protocol: (§1) Each in vitro kinase reaction was performed in a total volume of 15 µL containing 25 mM Tris-HCl (pH 7.0), 10 mM MgCl2, 100 µM EDTA, 2.8 µM of the substrate α-casein and 0.4 pmol [γ-^32P]-ATP at 30°C. […] Reactions were stopped by adding 3 µL of 5x SDS loading buffer and incubating at 95°C for 5 min. Proteins were separated by SDS-PAGE and stained with Coomassie Brilliant Blue R250 (Waldeck GmbH & Co. KG, Muenster, Germany). Autoradiography visualized the incorporation of radioactively labelled γ-phosphate into the proteins. A quantitative analysis of the radioactive signal was performed by excising the proteins from dried gels and measuring phosphate incorporation via Cherenkov counting (Beckmann Scintillation Counter). For the determination of the initial velocity region, a linear regression was performed. Thereby, the number of included data-points was decreased stepwise, and the point of time with the highest maximum coefficient of determination (R ^2) was chosen as the kinase-specific standard reaction time. For determination of the maximal velocity (Vmax) and Michaelis constant (Km) of ATP, various ATP concentrations in a range from 0.5 to 250 µM were tested. Raw data was used for the calculation of enzyme velocity (V) in [pmol/min]. Then, V was plotted over substrate (ATP) concentration and fitted to the Michaelis-Menten model via GraphPad Prism 8 (GraphPad Software, La Jolla, CA, United States). According to the Michaelis-Menten curve, Km, which is the concentration of the substrate, that is needed to obtain half Vmax, was calculated. For determination of IC50 values, the scintillation data measured in cpm was transformed to pmol of transferred phosphate. The data was then transformed logarithmically (X = log(X)), normalized to DMSO (100%) and zero (0%) before fitting to sigmoidal dose-response curves with variable slope with nonlinear regression using GraphPad Prism 7.
(§2) In compliance with the established standard conditions the kinase assays were performed in the presence of 20 µM of the respective inhibitor (Figure 7).

His-DrCK1δA = target: T2, His-DrCK1δA (Danio rerio, UniProt Q7T2E3); test: as above; type: biochemical, zebrafish (Danio rerio); settings: for mean residual kinase activity ± SD: 20 µM inhibitor, normalized to DMSO control
T2 construct: made in house; host or cells: E. coli Rosetta 2 (DE3)
T2 sequence (Q7T2E3 1-403): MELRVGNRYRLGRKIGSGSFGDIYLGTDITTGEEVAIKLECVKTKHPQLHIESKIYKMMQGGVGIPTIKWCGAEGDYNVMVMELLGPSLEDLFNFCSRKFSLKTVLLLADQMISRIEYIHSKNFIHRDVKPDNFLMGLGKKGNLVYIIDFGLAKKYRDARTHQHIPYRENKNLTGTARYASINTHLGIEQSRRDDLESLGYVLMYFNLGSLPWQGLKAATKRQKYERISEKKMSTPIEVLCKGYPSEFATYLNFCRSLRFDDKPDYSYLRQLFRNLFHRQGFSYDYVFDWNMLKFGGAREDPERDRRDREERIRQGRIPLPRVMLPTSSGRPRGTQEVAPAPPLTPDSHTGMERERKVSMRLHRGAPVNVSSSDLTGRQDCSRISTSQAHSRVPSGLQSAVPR
Protocol: as §1, §2
(§3) Next, in vitro kinase assays were performed in absence and presence of the respective SMI at different concentrations (ranging from 13 to 26667 nM). The kinase activity of the inhibitor-treated samples was normalized to the DMSO-control and plotted against the inhibitor concentration (Figure 10).

His-DrCK1δB = target: T3, His-DrCK1δB (Danio rerio, UniProt Q6P3K7); test: as above; type: biochemical, zebrafish (Danio rerio); settings: for mean residual kinase activity ± SD: 20 µM inhibitor, normalized to DMSO control
T3 construct: made in house; host or cells: E. coli Rosetta 2 (DE3)
T3 sequence (Q6P3K7 1-409): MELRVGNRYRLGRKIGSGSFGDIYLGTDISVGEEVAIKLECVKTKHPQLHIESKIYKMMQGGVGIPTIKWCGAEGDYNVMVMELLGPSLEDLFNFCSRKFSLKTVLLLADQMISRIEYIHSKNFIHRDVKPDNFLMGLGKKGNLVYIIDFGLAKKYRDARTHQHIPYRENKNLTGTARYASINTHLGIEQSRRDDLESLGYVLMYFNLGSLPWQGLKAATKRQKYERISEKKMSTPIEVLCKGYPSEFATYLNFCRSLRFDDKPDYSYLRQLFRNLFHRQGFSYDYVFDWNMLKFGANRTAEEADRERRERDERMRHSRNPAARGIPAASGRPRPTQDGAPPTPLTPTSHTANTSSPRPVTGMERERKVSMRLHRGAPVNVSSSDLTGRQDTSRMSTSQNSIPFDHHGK
Protocol: as §1, §2, §3

His-DrCK1ε = test: as above; type: biochemical, zebrafish (Danio rerio); settings: 20 µM inhibitor, normalized to DMSO control
Protocol: as §1, §2

GST-humCK1δ^TV1 = target: T4, GST-humCK1δ^TV1 (Homo sapiens, UniProt P48730); test: as above; type: biochemical; settings: for mean residual kinase activity ± SD: 20 µM inhibitor, normalized to DMSO control
T4 construct: made in house; host or cells: E. coli Rosetta 2 (DE3)
Protocol: as §1, §2, §3

CK1δ (TV1) = CK1δ (TV1) (Homo sapiens, UniProt P48730); test: initial IC50 determination in in vitro kinase assays, prior to standardization; type: biochemical; settings: not published
Protocol: (§4) The SMIs used in this study (summarized in Supplementary Table S2) were selected based on their inhibitory capacity toward CK1δ in vitro, whereby a broad range of inhibitors with varying efficiency were included. The determination of IC50-values was conducted prior to the standardization workflow establishment. Zebrafish embryos treated with 20 µM of the respective compound were phenotypically analyzed.
(§5) Supplementary Table 6: List of the inhibitors that were selected for the in vivo screening of zebrafish embryonic development. The compounds were selected based on their ability to inhibit CK1δ in in vitro kinase assays. The initial IC50-values were determined prior to the establishment of the standardized in vitro kinase assay protocol. The Supplementary Table summarizes, whether the zebrafish embryos presented an abnormal phenotype upon inhibitor treatment. The inhibitors were added to the zebrafish medium in a concentration of 20 µM.

CK1ε = CK1ε (Homo sapiens, UniProt P49674); test: as above; type: biochemical; settings: marked * not published, read-out: IC50 values CK1ε
Protocol: as §4, §5

CK1δ [2] = system: CK1δ; parameters: method as in Bischof et al., 2012; Bibian et al., 2013; settings: ref Bischof et al., 2012; Bibian et al., 2013; cited from earlier work
csnk1db (CK1δB) = test: morpholino knockdown in zebrafish embryos, phenotype; type: in vivo, zebrafish (D. rerio); settings: 300 µM injected, 72 hpf
From the text: The TüAB wildtype strain was used for all experiments. […] DMSO served as solvent control. […] Embryos were immobilized in 2.5% methylcellulose.

[3] = inhibitor 13 to 26667 nM, ATP at Km, normalized to DMSO
[4] = resulting from IC50 (Cheng-Prusoff, ATP at Km)

T4 sequence (P48730 whole entry): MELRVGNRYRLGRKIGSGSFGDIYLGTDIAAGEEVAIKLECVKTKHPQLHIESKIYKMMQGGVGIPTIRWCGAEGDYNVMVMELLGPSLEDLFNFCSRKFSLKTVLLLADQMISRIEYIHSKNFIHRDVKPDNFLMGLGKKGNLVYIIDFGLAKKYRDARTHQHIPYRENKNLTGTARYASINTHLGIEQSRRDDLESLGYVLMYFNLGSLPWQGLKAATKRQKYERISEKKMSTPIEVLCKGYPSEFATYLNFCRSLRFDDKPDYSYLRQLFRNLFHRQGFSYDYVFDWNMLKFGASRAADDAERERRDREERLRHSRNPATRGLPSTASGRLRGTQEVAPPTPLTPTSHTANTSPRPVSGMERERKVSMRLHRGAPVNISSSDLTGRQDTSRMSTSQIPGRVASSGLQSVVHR
T1 sequence (P49674 whole entry): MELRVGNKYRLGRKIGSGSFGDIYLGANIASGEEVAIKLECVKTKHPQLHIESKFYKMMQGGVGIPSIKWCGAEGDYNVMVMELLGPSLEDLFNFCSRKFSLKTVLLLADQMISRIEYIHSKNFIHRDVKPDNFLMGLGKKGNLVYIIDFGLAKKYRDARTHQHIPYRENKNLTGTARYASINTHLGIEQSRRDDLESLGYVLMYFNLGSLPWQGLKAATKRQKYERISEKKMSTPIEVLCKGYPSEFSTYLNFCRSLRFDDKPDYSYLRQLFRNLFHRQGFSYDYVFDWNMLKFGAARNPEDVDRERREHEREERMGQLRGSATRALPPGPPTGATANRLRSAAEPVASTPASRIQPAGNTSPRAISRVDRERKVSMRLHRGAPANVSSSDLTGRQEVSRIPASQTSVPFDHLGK
Sequence of CK1δ (TV1) (P48730 whole entry): as the sequence (P48730 whole entry) above
Sequence of CK1ε (P49674 whole entry): as the sequence (P49674 whole entry) above

Compound	mean residual kinase activity ± SD (GST-CK1ε)	mean residual kinase activity ± SD (His-DrCK1δA)	mean residual kinase activity ± SD (His-DrCK1δB)	mean residual kinase activity ± SD (His-DrCK1ε)	mean residual kinase activity ± SD (GST-humCK1δ^TV1)	phenotype of treated zebrafish embryos (zebrafish embryos; 5 µM)	phenotype of treated zebrafish embryos (zebrafish embryos; 10 µM)	Phenotypic changes (with severity) after treatment of zebrafish embryos with 20 µM inhibitor (zebrafish embryos; 20 µM in medium, from 24 hpf)	phenotype of treated zebrafish embryos (zebrafish embryos; 20 µM)	phenotype of treated zebrafish embryos (zebrafish embryos; 40 µM)	other results
O=C(CSc1nc2c(c(=O)n1-c1ccccc1)SCC2)Nc1nc2ccc(C(F)(F)F)cc2s1 [G1-1]	–	–	–	–	–	–	–	–	–	–	IC50 (CK1δ [1]; ref García-Reyes et al., 2018): 660 nM; Phenotypic changes (zebrafish embryos; zebrafish, in vivo): Mild bradycardia; Phenotypic changes (with severity) after treatment of zebrafish embryos with 20 µM inhibitor (zebrafish embryos; zebrafish, in vivo): Yes (mild)
COc1cccc(-n2c(SCC(=O)Nc3nc4ccc(C(F)(F)F)cc4s3)nccc2=O)c1 [G2-6, 2-((3-(3-Methoxyphenyl)-4-oxo-3,4-dihydropyrimidin-2-yl)thio)-N-(6-(trifluormethyl)benzo[d]thiazol-2-yl)acetamid]	18.0 ± 4.8%	11.9 ± 3.2%	10.0 ± 1.3%	25.5 ± 10.7%	9.1 ± 1.6%	cardiac phenotype, with bradycardia and blood congestion, resulting in cardiac edema	blood congestion and pericardial edema	Yes (severe)	strong cardiac phenotype, with blood congestion, a strong bradycardia and partially total loss of heart beat; also recorded: severe effects on the embryonic development, with strong bradycardia and blood congestion; also recorded: blood congestions; also recorded: pericardial edema	bradycardia, a loss of ventricular beating and as a result pericardial edema	IC50 (CK1δ (TV1)): 1400 nM; dose dependence of phenotype (zebrafish embryos; 48 h of incubation): increasingly severe cardiac malfunctions with increasing compound concentrations
O=C(CSc1nccc(=O)n1Cc1ccc(C(F)(F)F)cc1)Nc1nc2ccc(C(F)(F)F)cc2s1 [G2-2]	11.9 ± 2.0%	12.1 ± 3.9%	16.1 ± 9.5%	10.5 ± 3.0%	8.4 ± 1.1%	cardiac phenotype, with bradycardia and blood congestion	did not pump blood; also recorded: reduced heart function; also recorded: blood congestion and pericardial edema	Yes (severe)	strong cardiac phenotype, with blood congestion, a strong bradycardia and partially total loss of heart beat; also recorded: severe effects on the embryonic development, with strong bradycardia and blood congestion; also recorded: blood congestions; also recorded: pericardial edema	dead and highly toxic, and all treated embryos were dead after 48 h of treatment	IC50 (His-DrCK1δA; [3]): 345 nM; Ki (His-DrCK1δA; [4]): 173 nM; IC50 (His-DrCK1δB; [3]): 270 nM; Ki (His-DrCK1δB; [4]): 135 nM; IC50 (CK1δ [1]; ref Liu et al., 2019): 120 nM; IC50 (GST-humCK1δ^TV1; [3]): 503 nM; Ki (GST-humCK1δ^TV1; [4]): 251 nM; IC50 (CK1ε): 926 nM; concentration that induced necrosis (zebrafish embryos; 48 h of incubation, doses 5, 10, 20 and 40 µM): 40 µM; lethality to embryos (zebrafish embryos; at concentrations of 20 and 40 μM): lethal
O=C(CSc1nc2c(c(=O)n1Cc1ccc(C(F)(F)F)cc1)SCC2)Nc1nc2ccc(C(F)(F)F)cc2s1 [G1-3]	–	–	–	–	–	–	–	–	–	–	IC50 (CK1δ [1]; ref García-Reyes et al., 2018): 330 nM; Phenotypic changes (zebrafish embryos; zebrafish, in vivo): None observed; Phenotypic changes (with severity) after treatment of zebrafish embryos with 20 µM inhibitor (zebrafish embryos; zebrafish, in vivo): No
COc1ccccc1-n1c(SCC(=O)Nc2nc3ccc(C(F)(F)F)cc3s2)nccc1=O [G2-4, 2-((3-(2-Methoxyphenyl)-4-oxo-3,4-dihydropyrimidin-2-yl)thio)-N-(6-(trifluormethyl)benzo[d]thiazol-2-yl)acetamid]	8.6 ± 1.6%	7.6 ± 1.2%	6.3 ± 0.8%	11.3 ± 3.3%	3.2 ± 0.3%	mild phenotype with a minor blood congestion	weakly beating ventricle and a pericardial edema	Yes (severe)	strong cardiac phenotype, with blood congestion, a strong bradycardia and partially total loss of heart beat; also recorded: severe effects on the embryonic development, with strong bradycardia and blood congestion; also recorded: pericardial edema; also recorded: almost not beating	bradycardia, a loss of ventricular beating and as a result pericardial edema	IC50 (CK1δ (TV1)): 970 nM; dose dependence of phenotype (zebrafish embryos; 48 h of incubation): increasingly severe cardiac malfunctions with increasing compound concentrations
O=C(Nc1nc2ccc(C(F)(F)F)cc2[nH]1)c1csc(NC(=O)c2ccccc2OC(F)(F)F)n1 [Bischof-5]	–	–	–	–	–	–	–	–	–	–	50% inhibitory concentration (IC50) values (CK1δ [2]): double-digit nanomolar range
Fc1cccc(-n2cnc3c(NCc4nc5c(F)c(F)ccc5[nH]4)nc(N4CCOCC4)nc32)c1 [SR-3029]	–	–	–	–	–	–	–	–	–	–	50% inhibitory concentration (IC50) values (CK1δ [2]): double-digit nanomolar range
csnk1db morpholino: morpholino-modified antisense oligonucleotide targeting the translational start site of csnk1db, 5′-CTGTTTCCAACTCGTAGCTCCATTG-3′ (all phosphorodiamidate morpholino (PMO))	–	–	–	–	–	–	–	–	–	–	phenotype of morpholino injected embryos (csnk1db (CK1δB)): reduced heart function resulting in blood congestion; phenotype of morpholino injected embryos (csnk1db (CK1δB); listed as csnk1db): cardiac malfunction; also recorded: slightly curved body axis; phenotype of morpholino injected embryos (csnk1db (CK1δB); listed as csnk1db Morpholino): reduced heart function
